Counter-ions that a name gives are not always drawn. Like-named read-outs stand apart in the source and are kept apart here.
Legend:
CIRAR = assay: Example V: postemergence herbicidal activity of mixtures in forage crops, CIRAR; assay type: in vivo, Cirsium arvense (Canada thistle); settings: alone, foliar, approximately 21 days
Experimental: (§1) Seeds or root cuttings of the desired test plant species were planted in Sun Gro MetroMix® 306 planting mixture, which typically has a pH of 6.0 to 6.8 and an organic matter content of about 30 percent, in plastic pots with a surface area of 126.6 square centimeters (cm^2). […] The plants were grown for 14-60 days in a greenhouse with an approximate 14 hour photoperiod which was maintained at approximately 28° C. during the day and 24° C. during the night.
(§2) Spray solutions of the second herbicide or experimental compound mixtures were prepared by adding the stock solutions to the appropriate amount of dilution solution to form 12 mL spray solution with active ingredients in two-way combinations.

SOOSS = assay: Example V: postemergence herbicidal activity of mixtures in forage crops, SOOSS; assay type: in vivo, Solidago L. spec. (goldenrod); settings: alone, foliar, approximately 21 days
Experimental: as §1, §2

TRFRE = assay: Example V: postemergence herbicidal activity of mixtures in forage crops, TRFRE; assay type: in vivo, Trifolium repens (white clover); settings: alone, 17.5 gae/ha, foliar, approximately 21 days
Experimental: as §1, §2

SINAR = assay: Example V: postemergence herbicidal activity of mixtures in forage crops, SINAR; assay type: in vivo, Sinapis arvensis (wild mustard); settings: alone, foliar, approximately 21 days
Experimental: as §1, §2

SCPMA = assay: Example II: in-water applied herbicidal mixtures, transplanted paddy rice, SCPMA; assay type: in vivo; settings: 21 DAA
Experimental: (§3) The prepared mud was dispensed in 365 mL aliquots into 16-ounce (oz.) non-perforated plastic pots with a surface area of 86.59 square centimeters (cm^2) leaving a headspace of 3 centimeters (cm) in each pot Mud was allowed to dry overnight prior to planting or transplanting. Rice seeds were planted in Sun Gro MetroMix® 306 planting mixture, which typically has a pH of 6.0 to 6.8 and an organic matter content of about 30 percent, in plastic plug trays. Seedlings at the second or third leaf stage of growth were transplanted into 840 mL of mud contained in 32-oz. non-perforated plastic pots with a surface area of 86.59 cm^2 4 days prior to herbicide application. […] Nutrients were added as Osmocote® (19:6:12, N:P:K^+ minor nutrients) at 2 g per 16-oz. pot and 4 g per 32-oz. pot.
(§4) Applications were made by injecting with a pipetter appropriate amounts of the application solutions, individually and sequentially, into the aqueous layer of the paddy. Control plants were treated in the same manner with the solvent blank. Applications were made so that all treated plant material received the same concentrations of acetone and crop oil concentrate.

LEFCH = assay: Example I: postemergence foliar-applied herbicidal mixtures, direct seeded rice, LEFCH; assay type: in vivo, Leptochloa chinensis (Chinese sprangletop)
Experimental: The soil matrix was contained in plastic pots with a volume of 1 quart and a surface area of 83.6 square centimeters (cm^2). […] The plants were grown for 8-22 days in a greenhouse with an approximate 14 h photoperiod which was maintained at about 29° C. during the day and 26° C. during the night. Nutrients (Peters Excel® 15-5-15 5-Ca 2-Mg and iron chelate) were applied in the irrigation solution as needed and water was added on a regular basis. Supplemental lighting was provided with overhead metal halide 1000-Watt lamps as necessary. The plants were employed for testing when they reached the first through fourth true leaf stage.
Treatments consisted of the acid or esters of 4-amino-3-chloro-5-fluoro-6-(4-chloro-2-fluoro-3-methoxy-phenyl)pyridine-2-carboxylic acid (Compound A), each formulated as an SC (suspension concentrate), and various herbicidal components alone and in combination. Forms of compound A were applied on an acid equivalent basis.
For treatments comprised of formulated compounds, measured amounts of compounds were placed individually in 25 mL glass vials and diluted in a volume of 1.25% (v/v) Agri-Dex® crop oil concentrated to obtain 12× stock solutions. […] Application solutions were prepared by adding an appropriate amount of each stock solution (e.g., 1 mL) and diluted to the appropriate final concentrations with the addition of 10 mL of an aqueous mixture of 1.25% (v/v) crop oil concentrate so that the final spray solutions contained 1.25+/−0.05% (v/v) crop oil concentrate.
All stock solutions and applications solutions were visually inspected for compound compatibility prior to application. Spray solutions were applied to the plant material with an overhead Mandel track sprayer equipped with a 8002E nozzles calibrated to deliver 187 L/ha over an application area of 0.503 m^2 at a spray height of 18 to 20 inches (46 to 50 cm) above average plant canopy height. Control plants were sprayed in the same manner with the solvent blank.
The treated plants and control plants were placed in a greenhouse as described above and watered by sub-irrigation to prevent wash-off of the test compounds. After approximately 3 weeks, the condition of the test plants as compared with that of the untreated plants was determined visually and scored on a scale of 0 to 100 percent where 0 corresponds to no injury or growth inhibition and 100 corresponds to complete kill.
Colby's equation was used to determine the herbicidal effects expected from the mixtures (Colby, S. R. 1967. Calculation of the synergistic and antagonistic response of herbicide combinations. Weeds 15:20-22).
The following equation was used to calculate the expected activity of mixtures containing two active ingredients, A and B: Expected=A+B−(A×B/100)
A=observed efficacy of active ingredient A at the same concentration as used in the mixture.
B=observed efficacy of active ingredient B at the same concentration as used in the mixture.

SIDSP = assay: Example V: postemergence herbicidal activity of mixtures in forage crops, SIDSP; assay type: in vivo, Sida spinosa (prickly sida); settings: alone, 50 gae/ha, foliar, approximately 21 days
Experimental: as §1, §2

ECHOR = assay: Example II: in-water applied herbicidal mixtures, transplanted paddy rice, ECHOR; assay type: in vivo, Echinochloa oryzoides (early watergrass); settings: Echinochloa oryzoides, 504 h, read-out: Visual Weed Control (%) Obs, 21 DAA
Experimental: as §3, §4

CASOB = assay: Example V: postemergence herbicidal activity of mixtures in forage crops (greenhouse), CASOB; assay type: in vivo, Cassia obtusifolia (sicklepod); settings: alone, 50 gae/ha, foliar, approximately 21 days
Experimental: as §1, §2

ECHCG = assay: Example II: in-water applied herbicidal mixtures, transplanted paddy rice, ECHCG; assay type: in vivo, Echinochloa crus-galli (barnyardgrass); settings: 21 DAA
Experimental: as §3, §4

ECHCO = assay: Example I: postemergence foliar-applied herbicidal mixtures, direct seeded rice, ECHCO
CYPIR = assay: Example I: postemergence foliar-applied herbicidal mixtures, direct seeded rice, CYPIR; assay type: in vivo, Cyperus iria (rice flatsedge)

O=C(O)c1nc(Cl)ccc1Cl [Clopyralid MEA salt, 3,6-dichloro-2-pyridinecarboxylic acid with 2-aminoethanol, reference compound]
CIRAR Obs (observed value) (CIRAR; 35 gae/ha): 75%
SOOSS Obs (observed value) (SOOSS; 35 gae/ha): 25%

Nc1cc(Cl)nc(C(=O)O)c1Cl [Aminopyralid TIPA salt, 4-amino-3,6-dichloropyridine-2-carboxylic acid compound with 1,1′,1″-nitrilotris[2-propanol], reference compound]
CIRAR Obs (observed value) (CIRAR; 17.5 gae/ha): 45%
TRFRE Obs (observed value) (TRFRE): 35%
SINAR Obs (observed value) (SINAR; 17.5 gae/ha): 25%
SINAR Obs (observed value) (SINAR; 35 gae/ha): 45%
SOOSS Obs (observed value) (SOOSS; 17.5 gae/ha): 45%

COc1c(Cl)ccc(Cl)c1C(=O)O [Dicamba DMA Salt, 3,6-dichloro-2-methoxybenzoic acid compound with N-methylmethanamine, reference compound]
Visual Weed Control (%) Obs (SCPMA; 140 gae/ha): 0%
Visual Weed Control (%) Obs (SCPMA; 140 gai/ha): 0%
Visual Weed Control (%) Obs (SCPMA; 280 gae/ha): 0%
Visual Weed Control (%) - 20 DAA LEFCH Obs (LEFCH; 140 gae/ha): 0%
Visual Weed Control (%) - 20 DAA LEFCH Obs (LEFCH; 280 gae/ha): 0%
SIDSP Obs (observed value) (SIDSP): 25%
SINAR Obs (observed value) (SINAR; 50 gae/ha): 65%
pest or weed control at 140 g/ha (ECHOR; 140 gae/ha): 10%
pest or weed control at 140 g/ha (ECHOR; 140 gai/ha): 10%
pest or weed control at 280 g/ha (ECHOR; 280 gae/ha): 15%
pest or weed control at 280 g/ha (ECHOR; 280 gai/ha): 15%
CASOB Obs (observed value) (CASOB): 20%
Visual Weed Control (%) Obs (ECHCG; 140 gae/ha): 0%
Visual Weed Control (%) Obs (ECHCG; 280 gae/ha): 10%
Visual Weed Control (%) - 20 DAA ECHCO Obs (ECHCO; 70 gae/ha): 0%
Visual Weed Control (%) - 20 DAA ECHCO Obs (ECHCO; 140 gae/ha): 0%
Visual Weed Control (%) - 20 DAA ECHCO Obs (ECHCO; 280 gae/ha): 0%
Visual Weed Control (%) - 20 DAA CYPIR Obs (CYPIR; 70 gae/ha): 0%
Visual Weed Control (%) - 20 DAA CYPIR Obs (CYPIR; 140 gae/ha): 0%
Visual Weed Control (%) - 20 DAA CYPIR Obs (CYPIR; 280 gae/ha): 35%

Source: patent US8912120B2, “Herbicidal compositions comprising 4-amino-3-chloro-5-fluoro-6-(4-chloro-2-fluoro-3-methoxyphenyl) pyridine-2-carboxylic acid or a derivative thereof and synthetic auxin herbicides” (Dow AgroSciences, LLC., priority 2012, dated 2014)
